# Assay results from patent US20040013679A1, “LL-37 is an immunostimulant” (priority 2000, published 2004).
# Marks after values point to notes of the source that are not given here.
# Experiments:
# [1] = test system: human peripheral blood monocytes; assay: Monocyte chemotaxis assay (48-well microchemotaxis chamber, incl. checkerboard analysis); format: cell-based; details: for Migrated monocytes (checkerboard analysis): monocytes 1 × 10^6/ml, Mean ± SD of triplicate wells
# Protocol: A. The migration of monocytes (1×10^6 cells/ml) was assessed by chemotaxis assay using 5-μm uncoated membranes. Spontaneous cell migration (without LL-37) was 30-50 cells/HPF. The average C. I. (Mean ±SD) of triplicate wells is shown. *p<0.05 when compared with chemotaxis medium alone (open bar). […]
# (§1) Human peripheral blood mononuclear cells (PBMC) were isolated from leukopacks (Courtesy of the Transfusion Medicine Department, NIH Clinic Center, Bethesda, MD) by routine Ficoll-Hypaque density gradient centrifugation. Monocytes were purified from human PBMC with the use of MACS CD14 monocyte isolation kit (Miltenyi Biotech Inc., Auburn, CA) according to the manufacturer's recommendation (12). Neutrophils were purified from the same leukopacks by 3% dextran sedimentation. T cells were purified from PBMC by the use of Human CD4 T Cell Enrichment Columns (R & D Systems, Minneapolis, MN) (12). The purity of neutrophils, monocytes, and T cells by FACScan analysis was more than 95%. Rat basophilic leukemia cells stably transfected with epitope-tagged formyl peptide receptor (ETFR cells) were generously provided by Drs. H. Ali and R. Snyderman (Duke University, Durham, NC), and maintained in the presence of 0.8 mg/ml of geneticin in DMEM supplemented with 10% FBS. Human embryonic kidney cells 293 stably transfected with FPRL1 (designated FPRL1/293 cells thereafter) were a gift of Drs. P. M. Murphy and J. L. Gao (NIAID, NIH, Bethesda, Md) and were maintained in the presence of 2 mg/ml of geneticin in DMEM supplemented with 10% FBS.
# (§2) Migration of neutrophils, monocytes, T cells, and HEK293 or transfectant cells in response to chemotactic factors was assessed using a 48-well microchemotaxis chamber technique as previously described (17, 18). Chemotactic factors diluted in chemotaxis medium (CM, RPMI 1640 containing 1% BSA) were placed in the wells of the lower compartment of the chamber (Neuro Probe, Cabin John, […]), and cells suspended in CM were added to the upper compartment. The lower and upper compartments were separated by a polycarbonate membrane (Osmonics, Livermore, Calf.). After incubation at 37_C in humidified air with 5% CO2 for a period of time (60 min for neutrophils, 90 min for monocytes, 180 min for T cells, and 300 min for HEK293, ETFR, and FPRL1/293 cells), the membranes were removed, scraped, stained, and counted. The results are presented as number of cells per high power field (No./HPF) or as chemotactic index (C.I.).
# [2] = test system: human peripheral blood monocytes; assay: Ca2+ mobilization assay in monocytes (Fura-2); format: cell-based; set-up: Ca2+ flux in freshly isolated monocytes at single concentration: dose or concentration left out as unconfirmed
# Source text: as §1
# (§3) Monocytes or FPRL1/293 cells (10^7 cells/ml in RPMI 1640 containing 10% FBS) were loaded by incubating with 5 μM Fura-2 (Molecular Probe) at 24_C for 30 minutes in the dark. Subsequently, the loaded cells were washed with and resuspended (10^6 cells/ml) in saline buffer (138 mM NaCl, 6 mM KC1, 1 mM CaCl2, 10 mM HEPES, 5 mM glucose, and 1% BSA, pH 7.4). Each 2 ml of loaded cells suspension was then transferred into a quartz cuvette, which was placed in a luminescence spectrometer LS50 B (Perkin-Elmer Limited, Beaconsfield, U.K). Ca^2+mobilization of the cells in response to chemotactic factors was measured by recording the ratio of fluorescence emitted at 510 nm after sequential excitation at 340 nm and 380 nm.
# [3] = molecular target: T1, FPRL1 (HEK293 cells stably transfected with FPRL1) (Homo sapiens, UniProt P25090); assay: Chemotaxis of FPRL1/293 cells; format: cell-based; details: FIG. 3A
# T1 construct: expressed in transfected cells; gift of P. M. Murphy and J. L. Gao (NIAID, NIH)
# T1 sequence (P25090 1-351): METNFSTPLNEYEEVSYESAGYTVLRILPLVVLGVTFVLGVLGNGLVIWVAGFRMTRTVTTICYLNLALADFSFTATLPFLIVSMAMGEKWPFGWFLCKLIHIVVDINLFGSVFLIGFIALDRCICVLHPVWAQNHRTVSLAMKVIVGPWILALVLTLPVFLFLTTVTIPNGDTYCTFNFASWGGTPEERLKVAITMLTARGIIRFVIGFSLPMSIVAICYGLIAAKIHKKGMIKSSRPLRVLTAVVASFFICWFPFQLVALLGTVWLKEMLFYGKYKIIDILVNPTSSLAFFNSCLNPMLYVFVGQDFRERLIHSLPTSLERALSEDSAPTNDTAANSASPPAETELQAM
# Protocol: (§4) A. Selective induction of FPRL1/293 cell chemotaxis by LL-37. The migration of parental HEK293 (open bars), FPRL1/293 (dotted bars), or ETFR (closed bars) cells was assessed by chemotaxis assay with the use of collagen-coated 10-μm membranes. Cells were used at a concentration of 1×10^6 cells/ml. The average C. I. (Mean±SD) of triplicate wells is shown. Spontaneous cell migration (without LL-37) was 10-20 cells/HPF. *p<0.05 when compared with chemotaxis medium alone.
# (§5) Human peripheral blood mononuclear cells (PBMC) were isolated from leukopacks (Courtesy of the Transfusion Medicine Department, NIH Clinic Center, Bethesda, MD) by routine Ficoll-Hypaque density gradient centrifugation. Monocytes were purified from human PBMC with the use of MACS CD14 monocyte isolation kit (Miltenyi Biotech Inc., Auburn, CA) according to the manufacturer's recommendation (12). […]
# (§6) Migration of neutrophils, monocytes, T cells, and HEK293 or transfectant cells in response to chemotactic factors was assessed using a 48-well microchemotaxis chamber technique as previously described (17, 18). […] After incubation at 37_C in humidified air with 5% CO2 for a period of time (60 min for neutrophils, 90 min for monocytes, 180 min for T cells, and 300 min for HEK293, ETFR, and FPRL1/293 cells), the membranes were removed, scraped, stained, and counted. […]
# parental HEK293 cells = assay: Chemotaxis of parental HEK293 cells; format: cell-based, human; details: FIG. 3A
# Protocol: as §4, §2
# [4] = molecular target: T2, formyl peptide receptor (ETFR cells) (Homo sapiens, UniProt P21462); assay: Chemotaxis of ETFR cells; format: cell-based; details: FIG. 3A
# T2 construct: expressed in transfected cells; provided by H. Ali and R. Snyderman (Duke University)
# T2 sequence (P21462 1-350): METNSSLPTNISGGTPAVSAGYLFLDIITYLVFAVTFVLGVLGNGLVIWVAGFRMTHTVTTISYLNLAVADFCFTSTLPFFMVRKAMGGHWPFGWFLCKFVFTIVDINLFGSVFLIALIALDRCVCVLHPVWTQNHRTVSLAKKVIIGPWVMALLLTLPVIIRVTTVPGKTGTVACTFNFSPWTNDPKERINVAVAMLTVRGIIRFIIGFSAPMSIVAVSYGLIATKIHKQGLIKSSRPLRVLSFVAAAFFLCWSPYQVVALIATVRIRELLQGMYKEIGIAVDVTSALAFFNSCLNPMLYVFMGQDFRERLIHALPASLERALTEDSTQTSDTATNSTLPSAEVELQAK
# Protocol: as §4, §5, §6
# FPRL1 (FPRL1/293 cells) = molecular target: T3, FPRL1 (FPRL1/293 cells) (Homo sapiens, UniProt P25090); assay: Ca2+ mobilization assay in FPRL1/293 cells; format: cell-based; details: FIG. 3B
# T3 construct: expressed in transfected cells; gift of P. M. Murphy and J. L. Gao (NIAID, NIH)
# T3 sequence (P25090 1-351): T1 sequence (P25090 1-351)
# Source text: B. LL-37-induced Ca^2+ flux in FPRL1/293 cells. The arrow indicates the time point where LL-37 was applied to the cells.
# as §5, with “(12). Neutrophils were purified from the same leukopacks by 3% dextran sedimentation. T cells were purified from PBMC by the use of Human CD4 T Cell Enrichment Columns (R & D Systems, Minneapolis, MN) (12). The purity of neutrophils, monocytes, and T cells by FACScan analysis was more than 95%.” for “(12).”
# as §3, with “Subsequently, the loaded cells were washed with and resuspended (10^6 cells/ml) in saline buffer (138 mM NaCl, 6 mM KC1, 1 mM CaCl2, 10 mM HEPES, 5 mM glucose, and 1% BSA, pH 7.4).” left out
# [5] = molecular target: T2, formyl peptide receptor (ETFR cells); assay: Ca2+ flux in ETFR cells; format: cell-based
# [6] = test system: human peripheral blood neutrophils; assay: Neutrophil chemotaxis assay; format: cell-based
# Protocol: (§7) FIGS. 4A-B show the chemotaxis of human neutrophils (A) and CD4 T lymphocytes (B) in response to LL-37. The cell migration was assessed by chemotaxis assay with the use of uncoated (A) or fibronectin-coated (B) 5 μm membranes. The results are presented as the average C. I. (Mean±SD) of triplicate wells. *p<0.05 when compared with spontaneous cell migration (chemotactic medium alone). Neutrophils and CD4 T cells were used at a concentration of 1×10^6 cells/ml and 5×10^6 cells/ml, respectively. Spontaneous neutrophil and T cell migration (without LL-37) was 30-50 and 30-40 cells/HPF, respectively.
# (§8) Human peripheral blood mononuclear cells (PBMC) were isolated from leukopacks (Courtesy of the Transfusion Medicine Department, NIH Clinic Center, Bethesda, MD) by routine Ficoll-Hypaque density gradient centrifugation. […]
# as §6
# human CD4 T cells = assay: CD4 T lymphocyte chemotaxis assay; format: cell-based
# Protocol: as §7, §8, §6
# immature dendritic cells [7] = assay: Chemotaxis of monocyte-derived immature dendritic cells; format: cell-based, human; details: monocytes differentiated into immature dendritic cells
# immature dendritic cells [8] = assay: Ca2+ mobilization in monocyte-derived immature dendritic cells; format: cell-based, human; details: monocytes differentiated into immature dendritic cells
# CCR2 = molecular target: T4, CCR2 (Homo sapiens, UniProt P41597); assay: Examination of HEK293 cells stably transfected to express CCR2; format: cell-based
# T4 construct: expressed in transfected cells
# T4 sequence (P41597 whole entry): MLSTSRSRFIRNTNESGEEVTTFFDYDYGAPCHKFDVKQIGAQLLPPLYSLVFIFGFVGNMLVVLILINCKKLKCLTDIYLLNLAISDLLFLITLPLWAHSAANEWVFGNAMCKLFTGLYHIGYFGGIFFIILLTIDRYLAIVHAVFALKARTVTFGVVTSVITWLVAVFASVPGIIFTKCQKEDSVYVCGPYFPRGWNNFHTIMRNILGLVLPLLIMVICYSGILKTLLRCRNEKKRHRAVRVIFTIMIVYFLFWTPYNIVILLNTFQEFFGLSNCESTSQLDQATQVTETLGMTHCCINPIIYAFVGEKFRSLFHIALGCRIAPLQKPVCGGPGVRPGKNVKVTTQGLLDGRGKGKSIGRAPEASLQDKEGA
# Source text: To mediate its chemotactic effect on monocytes, LL-37 must use a chemotactic receptor expressed by monocytes, but not by monocyte-derived immature dendritic cells.
# [9] = 10% human AB serum; LL-37 at 10^−5 M; cited from earlier work
# mammalian cells = details: cited from earlier work
substance,measurement,setting,value
"LL-37: 37-residue mature antimicrobial peptide cleaved from hCAP18, human cathelicidin; synthesized by solid-phase Fmoc chemistry",LL-37-induced chemotaxis of monocytes in presence of serum,"[1]; 10% human AB serum, FIG. 2B",not significantly inhibited
same,Migrated monocytes (checkerboard analysis),"[1]; LL-37 lower wells 0 μM, upper wells 1 μM",45 ± 6 No./HPF
same,Migrated monocytes (checkerboard analysis),"[1]; LL-37 lower wells 0 μM, upper wells 10 μM",44 ± 7 No./HPF
same,Migrated monocytes (checkerboard analysis),"[1]; LL-37 lower wells 1 μM, upper wells 0 μM",135 ± 15** No./HPF
same,Migrated monocytes (checkerboard analysis),"[1]; LL-37 lower wells 1 μM, upper wells 1 μM",50 ± 8 No./HPF
same,Migrated monocytes (checkerboard analysis),"[1]; LL-37 lower wells 1 μM, upper wells 10 μM",40 ± 6 No./HPF
same,Migrated monocytes (checkerboard analysis),"[1]; LL-37 lower wells 10 μM, upper wells 0 μM",495 ± 29** No./HPF
same,Migrated monocytes (checkerboard analysis),"[1]; LL-37 lower wells 10 μM, upper wells 1 μM",265 ± 5** No./HPF
same,Migrated monocytes (checkerboard analysis),"[1]; LL-37 lower wells 10 μM, upper wells 10 μM",95 ± 2* No./HPF
same,Optimal concentration for induction of monocyte migration,"[1]; dose-dependent, FIG. 1A",10^−5 M
same,Induction of Ca2+ flux in monocytes,[2]; FIG. 1B,dose-dependently induced Ca^2+ flux
same,Desensitization of Su peptide-induced Ca2+ flux in monocytes,"[2]; Su peptide after LL-37 at 10^−5 M, FIG. 3C b",almost completely desensitized
same,Ca2+ flux in freshly isolated monocytes at single concentration,"[2]; peptide, FIG. 3C a and c",induced Ca^2+ flux to a similar extent
same,Migration of FPRL1/293 cells,[3],migrated in response to LL-37 in a dose-dependent manner
same,Migration of parental HEK293 cells,parental HEK293 cells,did not respond
same,Migration of ETFR cells,[4],did not respond
same,Ca2+ flux in FPRL1/293 cells,FPRL1 (FPRL1/293 cells),induced Ca^2+flux in a dose-dependent manner
same,Ca2+ flux in ETFR cells,[5],not in ETFR cells
same,Optimal concentration to chemoattract human leukocytes (neutrophils),[6]; FIG. 4,10^−5 M
same,Migration of purified neutrophils,[6]; FIG. 4A,induced dose-dependent migration
same,Optimal concentration to chemoattract human leukocytes (CD4 T cells),human CD4 T cells; FIG. 4,10^−5 M
same,Migration of CD4 T cells,human CD4 T cells; FIG. 4B,induced dose-dependent migration
same,Chemotaxis response of immature dendritic cells,immature dendritic cells [7],could not respond
same,Ca2+ mobilization response of immature dendritic cells,immature dendritic cells [8],could not respond
same,CCR2 as a receptor (CCR2-transfected HEK293 cells),CCR2,CCR2 was not a receptor
same,Antimicrobial activity in presence of serum,[9],completely block
same,Concentration damaging mammalian cells (cytocidal effect),mammalian cells,above 5×10^−5 M
